Legend:
uric acid clearance = assay: Accelerated uric acid clearance in rats caused by administration of compound (I); assay type: in vivo; details: male rats, mean of four measurements minus control value
Source text: Accelerated uric acid clearance in rats caused by administration of compound (I).
Nine-week-old male rats were employed for the test. As a pre-treatment for measuring uric acid clearance and inulin clearance, each animal was anesthetized with pentobarbital sodium, and canulae were placed into the right femoral artery (for blood collection), left femoral vein (for drug infusion), and urinary bladder (for urine collection) of each animal. 60% Urethane was subcutaneously administered to each animal at a dose of 2 ml/kg body weight and then 1.7% potassium oxonate/1.5% inulin/4% mannitol/0.9% saline solution was intravenously administered. After that, 0.5% pottasium oxonate/4% mannitol/1.5% inulin/0.9% saline was infused to each animal at a flow rate of 0.05 ml per minute on a hot plate kept at 30° C. Thirty minutes later, 0.9% saline was intraperitonealy administered at 4 ml/kg body weight. After the equilibrium for another 30 minutes, arterial blood (0.2 ml each) samples were collected 6 times at every 20 minute interval and five 20-minute urine samples were collected. Immediately after the collection of every blood sample, the serum was separated therefrom, and the serum samples and the urine samples were stored in a refrigerator.
Immediately after the first collection of the urine sample, the test compound suspended in 1% gum arabic was intraperitoneally administered at 2 ml/kg body weight.
Uric acid both in the serum and in the urine was quantitatively analyzed by the method of Yonetani et al's. [Yonetani, Y.; Ishii, M.; Iwaki, K., Japanese J. Pharmacology 30, 829-840 (1980).] Inulin was also done substantially by the method of Vurek's and Pegram's [Vurek, G G., Pegram, S.E., Anal.Biochem., 16, 409-419 (1966}]. In order to analyze uric acid, 0.2 ml of diluted solution of deproteinized serum or urine was admixed with 2.5 ml of 0.4% dimedon/orthphosphoric acid solution and the resulting mixture was heated in a hot bath for 5 minutes. The mixture was then cooled in ice-cold water and the fluorescence was measured at 400 nm in the excitation wave length at 360 nm. Control experiments were carried out using an equivalent amount of positive control compounds, ([5-chloro-3-(2-methylphenyl)-4-oxo-4H-1-benzopyran-7-yl] oxy)acetic acid and benzbromarone.
a) Increment of urinary uric acid was calculated by subtracting the control value from the mean value of four measurements after the administration of test compound.
b) Increment of fractional excretion of uric acid [Uric acid clearance/inulin clearance (i.e., glomerular filtration rate)] was calculated by subtracting the control value from the mean value of four measurements after the administration of test compound.

[1] = target: T1, xanthine oxidase (milk xanthine oxidase) (Bos taurus, UniProt P80457); assay: Evaluation of xanthine oxidase inhibition activity; assay type: biochemical; details: phosphate buffer pH=8, absorbance at 293 nm, 10 minutes, read-out: IC50 (50% inhibition rate)
T1 construct: purchased Boelinger Manheim; host or cells: milk
T1 sequence (P80457 whole entry): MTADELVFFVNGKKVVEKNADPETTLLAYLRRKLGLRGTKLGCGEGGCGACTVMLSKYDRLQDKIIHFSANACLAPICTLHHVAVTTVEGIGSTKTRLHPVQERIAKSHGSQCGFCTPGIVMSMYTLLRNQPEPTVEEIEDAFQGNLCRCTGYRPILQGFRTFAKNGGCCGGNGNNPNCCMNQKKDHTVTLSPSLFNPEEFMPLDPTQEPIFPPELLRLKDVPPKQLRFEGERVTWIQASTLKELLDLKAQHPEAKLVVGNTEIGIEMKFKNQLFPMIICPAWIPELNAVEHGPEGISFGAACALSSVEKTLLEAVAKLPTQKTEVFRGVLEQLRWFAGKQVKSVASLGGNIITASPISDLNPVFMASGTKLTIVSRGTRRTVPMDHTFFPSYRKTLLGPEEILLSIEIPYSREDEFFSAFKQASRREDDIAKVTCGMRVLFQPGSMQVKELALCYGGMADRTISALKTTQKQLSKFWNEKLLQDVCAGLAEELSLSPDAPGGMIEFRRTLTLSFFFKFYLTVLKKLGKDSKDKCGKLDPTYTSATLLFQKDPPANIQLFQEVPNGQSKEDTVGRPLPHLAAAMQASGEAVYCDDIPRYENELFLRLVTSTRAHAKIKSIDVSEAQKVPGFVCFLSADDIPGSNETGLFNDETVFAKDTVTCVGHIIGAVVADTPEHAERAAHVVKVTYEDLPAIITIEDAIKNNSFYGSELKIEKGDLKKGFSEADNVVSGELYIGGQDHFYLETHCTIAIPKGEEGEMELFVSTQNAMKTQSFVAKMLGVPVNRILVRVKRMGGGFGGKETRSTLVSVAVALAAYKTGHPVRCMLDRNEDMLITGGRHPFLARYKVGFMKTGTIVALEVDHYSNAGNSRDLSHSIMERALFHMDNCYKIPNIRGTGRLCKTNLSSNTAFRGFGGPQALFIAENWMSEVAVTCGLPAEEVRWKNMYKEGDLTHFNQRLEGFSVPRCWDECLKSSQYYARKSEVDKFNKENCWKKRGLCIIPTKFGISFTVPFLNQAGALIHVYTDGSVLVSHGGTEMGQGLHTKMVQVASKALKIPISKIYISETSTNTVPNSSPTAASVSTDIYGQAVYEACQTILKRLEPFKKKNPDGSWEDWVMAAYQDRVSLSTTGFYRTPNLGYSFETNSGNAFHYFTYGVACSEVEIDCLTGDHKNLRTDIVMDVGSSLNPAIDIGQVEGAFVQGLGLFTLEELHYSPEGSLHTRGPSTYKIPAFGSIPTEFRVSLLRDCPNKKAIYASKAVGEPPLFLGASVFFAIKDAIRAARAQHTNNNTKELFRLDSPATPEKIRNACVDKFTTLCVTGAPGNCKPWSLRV
Protocol: A mixture of 0.05M phosphate buffer (pH=8, 2 ml), 5.0×10^-4 M xanthine solution (0.5 ml), and an aqueous solution of a test compound (0.3 ml) was charged in a cell for the spectrophotometer. An aqueous solution of xanthine oxidase (200 times dilution, Boelinger Manheim, milk xanthine oxidase) (0.2 ml) was added to the mixture. The absorbance at 293 nm was measured before, and 10 minutes after, the addition of xanthine. The increase in the two measurements is attributable to the amount of synthesized uric acid. Control experiment was carried out using water instead of the test compound solution.

Compound: O=C(O)COc1cc(Cl)c2c(c1Cl)OC1(CCCCC1)CC2=O [Example 11]
- ΔUuaV (increment of urinary uric acid) (uric acid clearance; dose 10 mg/kg intraperitoneal): 0.022 mg/kg-min

Compound: COc1cc(OCC(=O)O)cc2c1C(=O)CC1(CCCCC1)O2 [Example 21, {(5-Methoxy-3,4-dihydro-4-oxospiro[2H-1-benzopyran-2,1'-cyclohexan]-7-yl)oxy}acetic acid]
- ΔUuaV (increment of urinary uric acid) (uric acid clearance; dose 10 mg/kg intraperitoneal): 0.046 mg/kg-min
- IC50 [1]: 65 µM

Compound: CCOc1cc(OCC(=O)O)cc2c1C(=O)CC1(CCCCC1)O2 [Example 22]
- ΔUuaV (increment of urinary uric acid) (uric acid clearance; dose 10 mg/kg intraperitoneal): 0.029 mg/kg-min

Compound: O=C(O)COc1cc(OCc2ccccc2)c2c(c1)OC1(CCCCC1)CC2=O [Example 23]
- ΔUuaV (increment of urinary uric acid) (uric acid clearance; dose 10 mg/kg intraperitoneal): 0.051 mg/kg-min

Compound: CC(C)Oc1cc(OCC(=O)O)cc2c1C(=O)CC1(CCCCC1)O2 [Example 24]
- ΔUuaV (increment of urinary uric acid) (uric acid clearance; dose 10 mg/kg intraperitoneal): 0.024 mg/kg-min

Compound: C=CCOc1cc(OCC(=O)O)cc2c1C(=O)CC1(CCCCC1)O2 [Example 25]
- ΔUuaV (increment of urinary uric acid) (uric acid clearance; dose 10 mg/kg intraperitoneal): 0.043 mg/kg-min

Compound: COc1cc(OCC(=O)O)cc2c1C(=O)C(C)C1(CCCCC1)O2 (stereo not shown) [Example 30]
- ΔUuaV (increment of urinary uric acid) (uric acid clearance; dose 10 mg/kg intraperitoneal): 0.036 mg/kg-min

Compound: COc1cc(OCC(=O)O)cc2c1C(=O)CC(C)(C)O2 [Example 33]
- ΔUuaV (increment of urinary uric acid) (uric acid clearance; dose 50 mg/kg intraperitoneal): 0.047 mg/kg-min

Compound: COc1c(OCC(=O)O)ccc2c1OC1(CCCCC1)CC2=O [Example 34]
- ΔUuaV (increment of urinary uric acid) (uric acid clearance; dose 10 mg/kg intraperitoneal): 0.040 mg/kg-min

Compound: O=C(O)COc1cc(O)c2c(c1)SC1(CCCCC1)CC2=O [Example 49, 2-{(5-Hydroxy-3,4-dihydro-4-oxospiro[2H-1-benzothiine-2,1'-cyclohexan]-7-yl)oxy}acetic acid]
- ΔUuaV (increment of urinary uric acid) (uric acid clearance; dose 10 mg/kg intraperitoneal): 0.082 mg/kg-min

Compound: COc1cc(OCC(=O)O)cc2c1C1(CC3(CCCCC3)O2)SCCS1 [Example 54, {(5-Methoxy-3,4-dihydrodispiro[2H-1-benzopyran-2,1'-cyclohexan-4,2"-[1,3]dithiolan]-7-yl)oxy}acetic acid]
- ΔUuaV (increment of urinary uric acid) (uric acid clearance; dose 10 mg/kg intraperitoneal): 0.039 mg/kg-min

Compound: COc1cc(OCC(=O)OCn2ncc3c(=O)[nH]cnc32)cc2c1C(=O)CC1(CCCCC1)O2 [Example 61]
- ΔUuaV (increment of urinary uric acid) (uric acid clearance; dose 25 mg/kg intraperitoneal): -0.006 mg/kg-min
